Read-outs that look alike come from different tables or passages of the source. Starred links: 1 amine or outer side, 2 acyl side, 3 side chain; linkers in the order of their positions; H or OH if unused. Positions of bridges follow the written chain, without caps; N, C: chain ends. *: point of attachment. C20 diacid = O=C(O)CCCCCCCCCCCCCCCCCCC(=O)*; γGlu = O=C(O)[C@H](CCC(=O)[*:2])N[*:1]
Legend:
[1] = biological target: T1, human amylin receptor (amylin 3(a) receptor: human calcitonin receptor + RAMP-3) (Homo sapiens, UniProt O60896+P30988); assay: Assay (II)a functional CRE-luciferase assay, human amylin receptor; assay type: cell-based
T1 construct: expressed in transfected cells; host or cells: BHK570
T1 sequence (P30988 25-474): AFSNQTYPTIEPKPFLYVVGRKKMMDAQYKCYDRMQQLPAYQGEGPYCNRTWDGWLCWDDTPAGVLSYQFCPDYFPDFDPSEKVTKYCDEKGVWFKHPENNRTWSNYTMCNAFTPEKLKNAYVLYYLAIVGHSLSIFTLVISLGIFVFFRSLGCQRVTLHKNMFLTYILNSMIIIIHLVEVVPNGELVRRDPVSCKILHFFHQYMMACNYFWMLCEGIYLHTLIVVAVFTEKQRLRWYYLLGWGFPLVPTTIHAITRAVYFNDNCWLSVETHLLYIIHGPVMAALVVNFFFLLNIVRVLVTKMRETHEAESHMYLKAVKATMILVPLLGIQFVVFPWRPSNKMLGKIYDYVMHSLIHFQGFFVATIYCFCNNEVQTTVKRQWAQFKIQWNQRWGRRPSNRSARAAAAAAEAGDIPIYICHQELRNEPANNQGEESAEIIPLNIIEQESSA
T1 sequence (O60896 24-148 partner): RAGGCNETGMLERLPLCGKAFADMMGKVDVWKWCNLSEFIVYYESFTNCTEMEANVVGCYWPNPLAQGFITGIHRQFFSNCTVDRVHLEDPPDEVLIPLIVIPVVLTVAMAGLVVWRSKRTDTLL

[2] = biological target: T2, human calcitonin receptor (Homo sapiens, UniProt P30988); assay: Assay (II)a functional CRE-luciferase assay, human calcitonin receptor; assay type: cell-based; settings: Table 7; human calcitonin (CTa) receptor
T2 construct: expressed in transfected cells; host or cells: BHK570
T2 sequence (P30988 25-474): T1 sequence (P30988 25-474)

[3] = Assay (III) ThT fibrillation assay for physical stability; assay type: physicochemical; settings: ThT fibrillation assay
Method in brief: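 Freshly prepared formulations, pH-adjusted, with 1 μM ThT; four or eight replicates incubated at 37 °C under 960 rpm orbital shaking. Fluorescence (ex 444/em 485 nm) read every 20 min; […]. Peptide concentration measured by RP-HPLC before and after the run.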

[4] = Assay (IV) determination of solubility; assay type: physicochemical
Method in brief: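 Polypeptide in water (~500 nmol/ml) mixed 1:1 with 100 mM glycylglycine (pH 3.0–5.0) or bistrispropane (pH 6.0–8.0) buffers. Held 18 hours at room temperature, then centrifuged. Polypeptide remaining in solution quantified by HPLC.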

[5] = bistrispropane buffer, pH 6, pH 6.0, read-out: Solubility pH 6.0
[6] = bistrispropane buffer, pH 6.5, pH 6.5, read-out: Solubility pH 6.5
[7] = bistrispropane buffer, pH 7, pH 7.0, read-out: Solubility pH 7.0
[8] = bistrispropane buffer, pH 7.5, pH 7.5, read-out: Solubility pH 7.5
[9] = bistrispropane buffer, pH 8, pH 8.0, read-out: Solubility pH 8.0
[10] = glycylglycine buffer, pH 3, pH 3.0, read-out: Solubility pH 3.0
[11] = glycylglycine buffer, pH 4, pH 4.0, read-out: Solubility pH 4.0
[12] = glycylglycine buffer, pH 5, pH 5.0, read-out: Solubility pH 5.0

| Substance | EC50 ([1]; Table 6, human amylin receptor) [nM] | EC50 [2] [nM] | ThT pH 4.0 lag time (h) [3] [h] | solubility at 18 h [4, 5] [µM] | solubility at 18 h [4, 6] [µM] | solubility at 18 h [4, 7] [µM] | solubility at 18 h [4, 8] [µM] | solubility at 18 h [4, 9] [µM] | solubility at 18 h [4, 10] [µM] | solubility at 18 h [4, 11] [µM] | solubility at 18 h [4, 12] [µM] | EC50 ([1]; Table 2, BHK amylin 3(a)-receptor/CRE-luc cells) [nM] | solubility at 18 h ([4]; glycylglycine buffer, pH 4, pH 4.0, 18 hours at room temperature, Table 2, read-out: Solubility pH 4.0) [µM] |
| --- | --- | --- | --- | --- | --- | --- | --- | --- | --- | --- | --- | --- | --- |
| {C20 diacid-γGlu}-SSGSSGCNTATCATQRLAEFLHHSSNNFGPILPPTNVGSNTY-NH2 (disulfide 7-12 (inferred)) [Example 39, N-alpha-[(S)-4-Carboxy-4-(19-carboxynonadecanoylamino)butyryl]-Ser-Ser-Gly-Ser-Ser-[Gly1,Glu14,His17]-pramlintide] | 0.253 | 0.432 | 0 | 6 | 4 | 1 | 25 | 26 | > 200 | 84 | 52 |  |  |
| {C20 diacid-γGlu}-SSGSSGHCNTATCATQRLAEFLHHSSNNFGPILPPTNVGSNTY-NH2 (disulfide 8-13 (inferred); C-terminus assumed) [Example 44, N-alpha-[(S)-4-Carboxy-4-(19-carboxynonadecanoylamino)butyryl]-Ser-Ser-Gly-Ser-Ser-Gly-[His1,Glu14,His17]-pramlintide] |  | 0.669 | 10.6 | 21 | 20 | 52 | > 200 | > 200 | > 200 | > 200 | > 200 | 0.305 | > 200 |
